From PubChem BioAssay AID743031 (The Scripps Research Institute Molecular Screening Center, 2013) come the findings set out here.

Structures are written as SMILES.

Experiment [1] relates to Mouse Plasma. Nature of the experiment: brain and plasma exposure of V1a-R antagonist lead, late-stage follow-up, in vivo study for V1a-R antagonist project, LC-MS/MS, mouse, powder samples (AID 743031). The note with it: C57Bl6 mouse, 10 mg/kg PO, LC-MS/MS at 60 min, 60 min after 10 mg/kg PO.
For experiment [2], the system named is Mouse Brain. The description is as above. The note with it: C57Bl6 mouse, 10 mg/kg PO, LC-MS/MS at 60 min, 60 min after 10 mg/kg PO.
The mark [3] stands for this setting: brain to plasma ratio, stronger effect = higher value.

For the molecule `O=C(C1CCN(c2ccc(Cl)cn2)CC1)N(CC1CC1)c1ccc(Cl)cc1`, the compound concentration in experiment [1] was found to be 2.56 µM; in experiment [2], 3.27 µM. For the same molecule, the brain/plasma ratio in experiment [1] (setting [3]) and in experiment [2] (setting [3]) was 1.28 in each case.
